Among the data in ChEMBL document CHEMBL1145565, “Synthesis, biological evaluation and radiochemical labeling of a dansylhydrazone derivative as a potential imaging agent for apoptosis” (2008) are Activity values, retold here.

Active and inactive are the calls of the source. The calls are words filed in the database; no cut-off is given here.

One experiment has as its system K562. As to the kind of experiment: Effect on drug-uptake in imatinib-induced human K562 apoptotic cells. The experiment is classed as functional, cell-based.
For another experiment, the system named is HT-29. Put plainly: Effect on drug-uptake in imatinib-induced human HT29 apoptotic cells. It counts as functional, cell-based.
Experiment [1] concerns MCF7. Put plainly: Effect on drug uptake in cytoplasm of paclitaxel-treated human MCF7 apoptotic cells. It counts as functional, cell-based.
Experiment [2] deals with MCF7. As to the kind of experiment: Induction of apoptosis in human MCF7 cells assessed as morphology at 50 nM after 16 hrs. The experiment is classed as functional.

As for `CN(C)c1cccc2c(S(=O)(=O)N/N=C/c3ccc(I)cc3)cccc12`, the outcome in the experiment on K562 and in the experiment with HT-29 was Active.
For `CN(C)c1cccc2c(S(=O)(=O)N/N=C\c3ccc(F)cc3)cccc12`, the result with MCF7 [1] was Active.
Take `Cc1cc(=O)cc2c3c1[C@@H]1O[C@H]4[C@@H]5OC(=O)[C@](CC2)([C@@H]4C)[C@H]3[C@@H]51`: the outcome in the experiment with K562 and in the experiment with HT-29 was Active.
Regarding `CN(C)c1ccc(/C=N/NS(=O)(=O)c2cccc3c(N(C)C)cccc23)cc1`, the outcome in the experiment with K562 and in the experiment with HT-29 was Active.
Regarding `CC(=O)O[C@H]1C(=O)[C@@]2(C)[C@H]([C@H](OC(=O)c3ccccc3)[C@]3(O)C[C@H](OC(=O)[C@H](O)[C@@H](NC(=O)c4ccccc4)c4ccccc4)C(C)=C1C3(C)C)[C@]1(OC(C)=O)CO[C@@H]1C[C@@H]2O` [PACLITAXEL], in the experiment with MCF7 [2], the Activity is 30%.
For the compound `CN(C)c1cccc2c(S(=O)(=O)N/N=C/c3ccc([N+](=O)[O-])cc3)cccc12`, the result with K562 and in the experiment on HT-29 was Active.
